Columns and labels:
[1] = tested on: HBV (2.2.15 cells); test: Antiviral activity in 2.2.15 cells: reduction of viral product accumulation (qPCR of lysates, HBsAg or HBeAg ELISA); assay type: cell-based, hepatitis B virus (HBV); conditions: Hepatitis B virus, 120 h, day 5 post treatment, 50% reduction of viral product accumulation in lysates or supernatants vs no drug controls, readout (qPCR, HBsAg, HBeAg) not specified
Method in brief: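 HBV-producing 2.2.15 cells, 35,000/well, treated with 5-fold serial compound dilutions at 0.5% final DMSO for 5 days. Lysate HBV DNA by qPCR or supernatant HBsAg/HBeAg by ELISA; EC50 is 50% reduction versus no-drug control, binned A<0.1 μM, B 0.1-1 μM, C>1 μM.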

[2] = Compound induced cellular toxicity in HepG2 cells (ATPlite 1 Step); assay type: cell-based; conditions: human, three days, 50% reduction of total ATP levels vs no drug controls
Experimental: At day 3, post seeding cells are treated with ATPlite 1 Step according to the manufacturer's instructions.

SMILES | EC50 [1] | CC50 at 3 days [2]
COCCCOc1cc2c(cc1-c1sc(C)nc1C)-c1cc(=O)c(C(=O)O)cn1[C@H](C(C)(C)C)C2 [Example 20, (S)-6-(tert-butyl)-10-(2,4-dimethylthiazol-5-yl)-9-(3-methoxypropoxy)-2-oxo-6,7-dihydro-2H-pyrido[2,1-a]isoquinoline-3-carboxylic Acid] | 100 to 1000 nM | > 25000 nM
COCCCOc1cc2c(cc1-c1nc3ccccc3o1)-c1cc(=O)c(C(=O)O)cn1[C@H](C(C)(C)C)C2 [Example 25, (S)-10-(benzo[d]oxazol-2-yl)-6-(tert-butyl)-9-(3-methoxypropoxy)-2-oxo-6,7-dihydro-2H-pyrido[2,1-a]isoquinoline-3-carboxylic Acid] | 100 to 1000 nM | > 25000 nM
CC(C)(C)[C@@H]1Cc2c(cc(-c3ccc(F)cc3)c3c2CCO3)-c2cc(=O)c(C(=O)O)cn21 [Example 62, (S)-5-(tert-butyl)-12-(4-fluorophenyl)-9-oxo-2,3,4,9-tetrahydro-5H-furo[3,2-f]pyrido[2,1-a]isoquinoline-8-carboxylic Acid] | < 100 nM | < 10000 nM
C[C@H]1Cc2c3c(cc(-c4ccoc4)c2O1)-c1cc(=O)c(C(=O)O)cn1[C@H](C(C)(C)C)C3 [Example 132, (2S,5S)-5-(tert-butyl)-12-(furan-3-yl)-2-methyl-9-oxo-2,3,4,9-tetrahydro-5H-furo[3,2-f]pyrido[2,1-a]isoquinoline-8-carboxylic Acid] | < 100 nM | < 10000 nM
CC(C)(C)[C@@H]1Cc2c(cc(-c3ccsc3)c3c2CCO3)-c2cc(=O)c(C(=O)O)cn21 [Example 71, (S)-5-(tert-butyl)-9-oxo-12-(thiophen-3-yl)-2,3,4,9-tetrahydro-5H-furo[3,2-f]pyrido[2,1-a]isoquinoline-8-carboxylic Acid] | < 100 nM | < 10000 nM
COCCCOc1cc2c(cc1-c1ccoc1)-c1cc(=O)c(C(=O)O)cn1[C@H](C(C)(C)C)C2 [Example 2, (S)-6-(tert-butyl)-10-(furan-3-yl)-9-(3-methoxypropoxy)-2-oxo-6,7-dihydro-2H-pyrido[2,1-a]isoquinoline-3-carboxylic Acid] | < 100 nM | > 25000 nM
COCCCOc1cc2c(cc1-c1ccc(F)cc1)-c1cc(=O)c(C(=O)O)cn1[C@H]1[C@@H]2COC1(C)C [Example 61, (3aS,12bR)-10-(4-fluorophenyl)-11-(3-methoxypropoxy)-3,3-dimethyl-7-oxo-3,3a,7,12b-tetrahydro-1H-furo[3,4-c]pyrido[2,1-a]isoquinoline-6-carboxylic Acid] | < 100 nM | > 25000 nM
CC(C)(C)[C@@H]1Cc2c(cc(-c3ccccc3)c3c2CCO3)-c2cc(=O)c(C(=O)O)cn21 [Example 67, (S)-5-(tert-butyl)-9-oxo-12-phenyl-2,3,4,9-tetrahydro-5H-furo[3,2-f]pyrido[2,1-a]isoquinoline-8-carboxylic Acid] | < 100 nM | < 10000 nM
COCCCOc1cc2c(cc1-c1cc[nH]c1)-c1cc(=O)c(C(=O)O)cn1[C@H](C(C)(C)C)C2 [Example 11, (S)-6-(tert-butyl)-9-(3-methoxypropoxy)-2-oxo-10-(1H-pyrrol-3-yl)-6,7-dihydro-2H-pyrido[2,1-a]isoquinoline-3-carboxylic Acid] | < 100 nM | > 25000 nM
COCCCOc1cc2c(cc1-c1ccco1)-c1cc(=O)c(C(=O)O)cn1[C@H](C(C)(C)C)C2 [Example 7, (S)-6-(tert-butyl)-10-(furan-2-yl)-9-(3-methoxypropoxy)-2-oxo-6,7-dihydro-2H-pyrido[2,1-a]isoquinoline-3-carboxylic Acid] | < 100 nM | > 25000 nM
COCCCOc1cc2c(cc1-c1cnco1)-c1cc(=O)c(C(=O)O)cn1[C@H](C(C)(C)C)C2 [Example 6, (S)-6-(tert-butyl)-9-(3-methoxypropoxy)-10-(oxazol-5-yl)-2-oxo-6,7-dihydro-2H-pyrido[2,1-a]isoquinoline-3-carboxylic Acid] | < 100 nM | > 25000 nM
COCCCOc1cc2c(cc1-c1ocnc1C(F)(F)F)-c1cc(=O)c(C(=O)O)cn1[C@H](C(C)(C)C)C2 [Example 27, (S)-6-(tert-butyl)-9-(3-methoxypropoxy)-2-oxo-10-(4-(trifluoromethyl)oxazol-5-yl)-6,7-dihydro-2H-pyrido[2,1-a]isoquinoline-3-carboxylic Acid] | 100 to 1000 nM | > 25000 nM
COCCCOc1cc2c(cc1-c1coc3ccccc13)-c1cc(=O)c(C(=O)O)cn1[C@H](C(C)(C)C)C2 [Example 10, (S)-10-(benzofuran-3-yl)-6-(tert-butyl)-9-(3-methoxypropoxy)-2-oxo-6,7-dihydro-2H-pyrido[2,1-a]isoquinoline-3-carboxylic Acid] | < 100 nM | > 25000 nM
COc1cccc(-c2cc3c(c4c2OCC4)C[C@@H](C(C)(C)C)n2cc(C(=O)O)c(=O)cc2-3)c1 [Example 79, (S)-5-(tert-butyl)-12-(3-methoxyphenyl)-9-oxo-2,3,4,9-tetrahydro-5H-furo[3,2-f]pyrido[2,1-a]isoquinoline-8-carboxylic Acid] | < 100 nM | < 10000 nM
CC(C)(C)[C@@H]1Cc2c(cc(-c3ccc(F)c(F)c3)c3c2CCO3)-c2cc(=O)c(C(=O)O)cn21 [Example 77, (S)-5-(tert-butyl)-12-(3,4-difluorophenyl)-9-oxo-2,3,4,9-tetrahydro-5H-furo[3,2-f]pyrido[2,1-a]isoquinoline-8-carboxylic Acid] | < 100 nM | < 10000 nM
COCCCOc1cc2c(cc1-c1ccc(F)cc1)-c1cc(=O)c(C(=O)O)cn1[C@H](C(C)(C)C)C2 [Example 15, (S)-6-(tert-butyl)-10-(4-fluorophenyl)-9-(3-methoxypropoxy)-2-oxo-6,7-dihydro-2H-pyrido[2,1-a]isoquinoline-3-carboxylic Acid] | < 100 nM | 10000 to 25000 nM
COCCCOc1cc2c(cc1-c1ccc(C)o1)-c1cc(=O)c(C(=O)O)cn1[C@H](C(C)(C)C)C2 [Example 1, (S)-6-(tert-butyl)-9-(3-methoxypropoxy)-10-(5-methylfuran-2-yl)-2-oxo-6,7-dihydro-2H-pyrido[2,1-a]isoquinoline-3-carboxylic Acid] | < 100 nM | > 25000 nM
COCCCOc1cc2c(cc1-c1cccc(F)c1)-c1cc(=O)c(C(=O)O)cn1[C@H](C(C)(C)C)C2 [Example 14, (S)-6-(tert-butyl)-10-(3-fluorophenyl)-9-(3-methoxypropoxy)-2-oxo-6,7-dihydro-2H-pyrido[2,1-a]isoquinoline-3-carboxylic Acid] | < 100 nM | 10000 to 25000 nM
COCCCOc1cc2c(cc1-c1ccc3c(c1)OCCN3C)-c1cc(=O)c(C(=O)O)cn1[C@H](C(C)(C)C)C2 [Example 24, (S)-6-(tert-butyl)-9-(3-methoxypropoxy)-10-(4-methyl-3,4-dihydro-2H-benzo[b][1,4]oxazin-7-yl)-2-oxo-6,7-dihydro-2H-pyrido[2,1-a]isoquinoline-3-carboxylic Acid] | 100 to 1000 nM | > 25000 nM
COCCCOc1cc2c(cc1-c1cccc(OC)c1)-c1cc(=O)c(C(=O)O)cn1[C@H](C(C)(C)C)C2 [Example 16, (S)-6-(tert-butyl)-10-(3-methoxyphenyl)-9-(3-methoxypropoxy)-2-oxo-6,7-dihydro-2H-pyrido[2,1-a]isoquinoline-3-carboxylic Acid] | < 100 nM | 10000 to 25000 nM
COCCCOc1cc2c(cc1-c1nc(C(F)(F)F)co1)-c1cc(=O)c(C(=O)O)cn1[C@H](C(C)(C)C)C2 [Example 26, (S)-6-(tert-butyl)-9-(3-methoxypropoxy)-2-oxo-10-(4-(trifluoromethyl)oxazol-2-yl)-6,7-dihydro-2H-pyrido[2,1-a]isoquinoline-3-carboxylic Acid] | 100 to 1000 nM | > 25000 nM
COCCCOc1cc2c(cc1C1=COCC1)-c1cc(=O)c(C(=O)O)cn1[C@H](C(C)(C)C)C2 [Example 46, (S)-6-(tert-butyl)-10-(4,5-dihydrofuran-3-yl)-9-(3-methoxypropoxy)-2-oxo-6,7-dihydro-2H-pyrido[2,1-a]isoquinoline-3-carboxylic Acid] | < 100 nM | > 25000 nM
COCCCOc1cc2c(cc1-c1ccccc1)-c1cc(=O)c(C(=O)O)cn1[C@H](C(C)(C)C)C2 [Example 3, (S)-6-(tert-butyl)-9-(3-methoxypropoxy)-2-oxo-10-phenyl-6,7-dihydro-2H-pyrido[2,1-a]isoquinoline-3-carboxylic Acid] | < 100 nM | < 10000 nM
COCCCOc1cc2c(cc1C1=CCCCO1)-c1cc(=O)c(C(=O)O)cn1[C@H](C(C)(C)C)C2 [Example 29, (S)-6-(tert-butyl)-10-(3,4-dihydro-2H-pyran-6-yl)-9-(3-methoxypropoxy)-2-oxo-6,7-dihydro-2H-pyrido[2,1-a]isoquinoline-3-carboxylic Acid] | 100 to 1000 nM | > 25000 nM
CC(C)[C@@H]1Cc2c(cc(-c3ccsc3)c3c2CCO3)-c2cc(=O)c(C(=O)O)cn21 [Example 100, (S)-5-isopropyl-9-oxo-12-(thiophen-3-yl)-2,3,4,9-tetrahydro-5H-furo[3,2-f]pyrido[2,1-a]isoquinoline-8-carboxylic Acid] | < 100 nM | < 10000 nM
COCCCOc1cc2c(cc1-c1cc3ccccc3[nH]1)-c1cc(=O)c(C(=O)O)cn1[C@H](C(C)(C)C)C2 [Example 19, (S)-6-(tert-butyl)-10-(1H-indol-2-yl)-9-(3-methoxypropoxy)-2-oxo-6,7-dihydro-2H-pyrido[2,1-a]isoquinoline-3-carboxylic Acid] | 100 to 1000 nM | > 25000 nM
